Measured values: patent US20240382508A1, “REGENERATIVE AGENT FOR BONE TISSUE AND LUNG TISSUE, AND PHARMACEUTICAL COMPOSITION FOR REGENERATING BONE TISSUE AND LUNG TISSUE” (NIIGATA UNIVERSITY, priority 2021, published 2024)

What was measured:
osteoblasts = experiment: bone nodule measurement in osteoblasts (Alizarin red S); type: cell-based, mouse; conditions: for formation of bone nodules (FIG. 1): erythromycin 10 μg/mL
Description: Next, from the cranial bones of 3-day-old wild-type mice (N=6, male C57BL/6N mice, manufactured by CLEA Japan, Inc.) and 3-day-old DEL-1-deficient mice (N=6, male C57BL/6N mice (manufactured by CLEA Japan, Inc.), a method for producing the deficient mice was as described in Non Patent Document 1), osteoblasts were isolated by allowing 0.1% by mass of type 1 collagenase and 0.2% by mass of dispase to act at 37° C. for 20 minutes, and the cells were cultured in α-MEM and a bone differentiation medium (containing 50 μg/ml ascorbic acid and 10 mM β-glycerol 2-phosphate). Ethanol (final concentration 0.1% by mass) and erythromycin (10 μg/mL) were added into the medium in which the osteoblasts (1×10^4 cells/mL) derived from the wild-type mice or the DEL-1-deficient mice were cultured. The medium was exchanged every 3 days, and after 15 days, the cells were stained with Alizarin red S, followed by performing of bone nodule measurement.
(§1) Next, the proportion (%) of bone nodules with respect to the observation region in the above-described osteoblasts was calculated from microscopic images by using image processing software (NIH Image). In addition, RNA was extracted from each of the osteoblasts by using an RNeasy Kit (manufactured by QIAGEN NV), subsequently cDNA was synthesized by using a cDNA synthesis kit (manufactured by Thermo Fisher Scientific, Inc.), and the relative expression levels of RUNX2 mRNA, Sp7 mRNA, and Bglap mRNA, which are important for bone regeneration, were checked by an RT-PCR method (Quantstudio3, Thermo Fisher Scientific, Inc.). Regarding primers, designed primers manufactured by Thermo Fisher Scientific, Inc. were used. The Assay IDs of the primers used are shown below.
(Bone regeneration-inducing effect 2 by various macrolide antimicrobial agents) From the cranial bones of 3-day-old wild-type mice (N=6, male C57BL/6N mice, manufactured by CLEA Japan, Inc.), osteoblasts were isolated by allowing 0.1% by mass of type 1 collagenase and 0.2% by mass of dispase to act at 37° C. for 20 minutes, and the cells were cultured in α-MEM and a bone differentiation medium (containing 50 μg/ml ascorbic acid and 10 mM β-glycerol 2-phosphate). Ethanol (final concentration 0.1% by mass), or erythromycin, clarithromycin, or azithromycin (10 μg/mL each) was added into the medium in which the osteoblasts (1×10^4 cells/mL) derived from the wild-type mice were cultured. The medium was exchanged every 3 days, and after 15 days, the cells were stained with Alizarin red S, followed by performing of bone nodule measurement. The results are shown in FIG. 11 In FIG. 11, the symbol * indicates p<0.05, and the symbol ** indicates p<0.01. In addition, the control is an ethanol (final concentration 0.1% by mass)-added group.

[1] = test system: RUNX2 mRNA, Sp7 mRNA, and Bglap mRNA; experiment: RT-PCR of bone regeneration genes in osteoblasts; type: cell-based, mouse; conditions: osteoblasts derived from wild-type mice
Description: as §1

[2] = test system: α-SMA-positive mesenchymal stem cells; experiment: immunofluorescence staining of periodontal tissue of experimental periodontitis mice; type: in vivo, mouse; conditions: wild-type mice; jawbone slices
Description: Next, jawbones of the wild-type mice to which erythromycin had or had not been administered were extracted and fixed, and then slice preparations were produced. Next, immunofluorescence staining was performed by using an anti-α-SMA antibody (manufactured by Abcam, Ltd.) fluorescently labeled with Alexa Fluor (registered trademark) 488 (manufactured by Thermo Fisher Scientific, Inc.), an anti-CD31/PECAM-1 antibody (manufactured by Thermo Fisher Scientific, Inc.) fluorescently labeled with Alexa Fluor (registered trademark) 647 (manufactured by Thermo Fisher Scientific, Inc.), and an anti-Ki67 antibody (manufactured by R&D Systems, Inc.) fluorescently labeled with Alexa Fluor (registered trademark) 594 (manufactured by Thermo Fisher Scientific, Inc.). Observation images (magnification: 200 times) obtained with a fluorescence microscope (ECLIPSE Ni-E, manufactured by Nikon Corporation) are shown in FIG. 5.

[3] = test system: rheumatoid arthritis model mice; experiment: rheumatoid arthritis (CAIA) model, microCT of hind limb; type: in vivo, mouse
Description: Rheumatoid arthritis (CAIA) (a collagen antibody-administered arthritis-inducing cocktail manufactured by Chondrex, Inc. was used, and the details of the production method were performed according to the protocol provided by Iwai Chemicals Co., Ltd.) was induced by using 6-week-old wild-type mice (N=4, male C57BL/6N mice, manufactured by CLEA Japan, Inc.) and 6-week-old DEL-1-deficient mice (N=4, male C57BL/6N mice (manufactured by CLEA Japan, Inc.), the method for producing the deficient mice was as described in Non Patent Document 1), and erythromycin (10 mg/kg) was intraperitoneally administered once every 3 days from the 1st day after the induction. Regarding the DEL-1-deficient mice, a group in which DEL-1 (10 μg) was administered through the tail vein once every 3 days from the 1st day after the CAIA induction, was also prepared. Nine days after the administration, the hind limb of each mouse was examined by microCT.

acute lung disorder mice = experiment: LPS-induced acute lung disorder, HE staining of lung tissue; type: in vivo, mouse; conditions: 10 mg/kg intraperitoneally once a day for two weeks
Description: Acute lung disorder was induced by administering lipopolysaccharide (LPS) to the tracheae and bronchi of mice (the details of a production method were as described in Non Patent Document 1). Erythromycin (10 mg/kg) was administered to 6-week-old wild-type mice (N=4, male C57BL/6N mice, manufactured by CLEA Japan, Inc.) and 6-week-old DEL-1-deficient mice (N=4, male C57BL/6N mice (manufactured by CLEA Japan, Inc.), a method for producing the deficient mice was as described in Non-Patent Document 1), by intraperitoneal administration once a day for a total of two weeks. After the administration, the lungs were extracted from each mouse and fixed, and then slice preparations were produced. Next, hematoxylin and eosin (HE) staining was performed. Observation images (magnifications: 10 times and 200 times) obtained with a microscope (manufactured by Nikon Corporation, ECLIPSE Ni-E) are shown in FIG. 7A to 7C.

Structure (SMILES): CC[C@H]1OC(=O)[C@H](C)[C@@H](O[C@H]2C[C@@](C)(OC)[C@@H](O)[C@H](C)O2)[C@H](C)[C@@H](O[C@@H]2O[C@H](C)C[C@H](N(C)C)[C@H]2O)[C@](C)(O)C[C@@H](C)C(=O)[C@H](C)[C@@H](O)[C@]1(C)O [erythromycin]
- proportion of bone nodules (FIG. 2) (osteoblasts; osteoblasts derived from DEL-1-deficient mice): an increase in the proportion of bone nodules was not recognized
- formation of bone nodules (FIG. 1) (osteoblasts; osteoblasts derived from DEL-1-deficient mice, 15 days): the formation of bone nodules was not recognized
- proportion of bone nodules (FIG. 2) (osteoblasts; osteoblasts derived from wild-type mice): significant increases in the proportion of bone nodules was recognized
- formation of bone nodules (FIG. 11) (osteoblasts; osteoblasts derived from wild-type mice, 10 μg/mL each, 15 days): the formation of bone nodules was recognized
- formation of bone nodules (FIG. 1) (osteoblasts; osteoblasts derived from wild-type mice, 15 days): the formation of bone nodules was recognized
- expression of Bglap mRNA [1]: increases in the expression
- expression of RUNX2 mRNA [1]: increases in the expression
- expression of Sp7 mRNA [1]: increases in the expression
- proportion of α-SMA-positive mesenchymal stem cells (FIG. 5) [2]: the proportion of α-SMA-positive mesenchymal stem cells was increased
- bone destruction (FIG. 6) ([3]; DEL-1-deficient mice, erythromycin 10 mg/kg intraperitoneally or DEL-1 10 μg tail vein once every 3 days): bone destruction was not suppressed
- bone destruction (FIG. 6) ([3]; wild-type mice, erythromycin 10 mg/kg intraperitoneally once every 3 days): bone destruction was suppressed
- tissue repair and restructuring of the alveolar structure (FIG. 7C) (acute lung disorder mice; DEL-1-deficient mouse): normal tissue repair and restructuring of the alveolar structure were not recognized
- tissue repair and restructuring of the alveolar structure (FIG. 7B) (acute lung disorder mice; wild-type mouse): normal tissue repair and restructuring of the alveolar structure were recognized
